Measurements as given in US5618804A, “Methanediphosphonic acid derivative, process for production thereof and use for pharmaceuticals” (Toray Industries, Inc., priority 1992, dated 1997).

Assays:
adjuvant arthritis = test: Adjuvant arthritis test (foot edema and osteoclasia); type: in vivo, rat (7-week-old female Lewis rats); details: 20 mg/kg s.c., days 8-21; for Inhibition rate of osteoclasia with respect to control group: 22nd day, left and right hind legs, soft X-ray
osteoclasts = test: Inhibition of active-type vitamin D3-stimulated bone resorption (resorption pit formation on dentin slices); type: cell-based, mouse (ICR); details: 10 nM active-type vitamin D3, 4 days
From the text: In conditions of osteoporosis, it is thought that the balance between bone formation and bone resorption is lost, with bone resorption being accelerated. Bone resorption is thought to occur due to the activation and increase in the number of osteoclasts, and a model thereof is an experiment in which mouse osteocytes are planted on dentin slices, causing bone resorption due to the stimulation of active-type vitamin D3. Using this model, the bone resorption-inhibiting effects of the compounds according to the present invention were determined.
The femurs and tibias were separated from 10 to 15- day-old ICR mice, and minced in an α-MEM culture medium containing 5% fetal calf serum, and an osteoclast suspension was prepared containing bone marrow cells and bone matrix. The large bone fragments were removed using a nylon mesh, and the viable cells were stained using trypan blue staining, while the osteoclasts were stained using tartaric acid-resistant acidic phosphatase staining, and a cell suspension was prepared which contained the osteoclasts at a proportion of about 0.05-0.1%. The dentin was cut to thicknesses of 150 μm using a low-speed rotating diamond cutter, and punched with a puncher to the size of wells of a 96-well plate. The dentin slices were placed in a 96-well plate, and the cell suspension prepared as described above was placed thereupon to a concentration of 500 osteoclasts per well. As a stimulant, 10 nM active-type vitamin D3 was added thereto, and at the same time the preparations according to the present invention were added thereto to concentrations of 10 μM and 100 μM. The cells were cultured at 37° C. in 10% CO2 environment, and after 4 days' culture the resorption pits which formed on the dentin slices were stained with hematoxylin, and then observed under a microscope and counted. The rate of inhibition of resorption pit formation was calculated according to the following equation. [formula]
The results were indicated with "*" in cases where, based on statistical calculation using the Student t-test, the level of significance was P<0.05 and with "**" in cases where the level of significance was P<0.01 with respect to the active-type vitamin D3 -stimulated control group.

[1] = tested on: Mouse Macrophage Cell Line J774-1; test: Inhibition of IL-1 production by LPS-stimulated mouse macrophage cell line J774-1 (IL-1 activity by thymocyte proliferation); type: cell-based; details: 100 μM compound, 1 μg/ml LPS, 24 h, read-out: IL-1 production inhibition rate with respect to control group
Protocol: Effect Against Production of IL-1 by Mouse Macrophage Cell Line J774-1
With this cell line, the inhibitory effects to IL-1 production of the compounds according to the present invention were determined by the following procedure.
J774-1 cells were cultured in an RPMI-1640 culture medium containing 10% fetal calf serum and 50 μM of 2-mercaptoethanol, and prepared to a cell concentration of 2×10^5 cells/ml. The cell suspension was distributed into a 24-well plate to 1 ml per well, and cultured for 30 minutes. […]
A two-fold serial dilution was made of the above obtained sample in a 96-well multiplate to a volume of 50 μl per well, and 50 μl of the T cell suspension was added to each well. The T cells were cultured for 72 hours, and the IL-1 activity was determined by the rate of cell proliferation. The cell proliferation was calculated using as the value of the absorbance at 570 nm of the pigment produced upon reduction of 3-[4,5-dimethylthiazole-2-yl]-2,5-diphenyltetrazolium bromide by the mitochondria of the viable cells, added at 4 hours prior to completion of the culturing, with 100% proliferation defined as the maximum proliferation of T cells induced by recombinant human IL-1, 0% defined as proliferation with no addition of IL-1, and the units of the sample defined as the degree of dilution of the sample which caused 50% proliferation of the T cells. […]

Rabbit cartilage cells = test: IL-1-inhibiting effect: proteoglycan degradation in IL-1-stimulated rabbit cartilage cells; type: cell-based, rabbit (New Zealand white); details: IL-1-stimulated (30 units/ml rhIL-1β), 100 μM compound, 24 h
Protocol: Rabbit cartilage cells are separated from knee joint and cultured. When they are stimulated with IL-1, proteoglycan, the main constituent glycoprotein of cartilage cells, is degraded. Using this consequence as an index, the IL-1-inhibiting effects of the compounds according to the present invention were determined in the following manner.
Three-week-old male New Zealand white rabbits weighing 250 g-300 g were sacrified under diethyl ether anesthesia, and their knee joints were separated. The cartilaginous sections were cut out from the knee joint with a scalpel, and then immersed in CMF solution containing 0.14M sodium chloride, 4 mM potassium chloride, 0.4 mM sodium dihydrogen phosphate, 12 mM sodium bicarbonate, 0.2 mM potassium dihydrogen phosphate and 11 mM glucose. The cartilage was placed in 0.1% EDTA and incubated at 37° C. for 20 minutes. The supernatant was removed off, 0.15% trypsin was added to the mixture, and then that was incubated at 37° C. for 60 minutes. The mixture was washed 3 times with CMF solution, and then placed in […] and further treated at 37° C. for 105 minutes. […]
Each of the obtained counts was divided by the count at the initial addition of inorganic sulfuric acid, and expressed as a percentage. […]

neutrophils = test: Inhibition of active oxygen release from fMLP-stimulated human neutrophils (CLA chemiluminescence); type: cell-based; details: 10 μm (so in the source)
Protocol: Neutrophils are known to ingest foreign bodies for their removal and to produce active oxygen and digestive enzymes, as a biological defense mechanism. However, during chronic inflammation, etc., the active oxygen and digestive enzymes produced by neutrophils also damage normal tissue, and are thought to further reinforce inflammation. Here, the effects of the compounds according to the present invention against the release of active oxygen from neutrophils were determined in the following manner.
Using 3.8% sodium citrate as an anticoagulant, 50 ml of blood was taken from a human vein. […] Of these neutrophils, 1×10^5 cells were incubated at 37° C. with […] of the stimulant, formyl-methionyl-leucyl-phenylalanine (fMLP), and at the same time the compounds according to the present invention were added thereto and the production of active oxygen was measured. For the measurement of the active oxygen, 2-methyl-6-phenyl-3,7-dihydroimidazo [1,2a]pyrazine-3-one (CLA) was reacted therewith resulting in excited carbonyl compounds, and utilizing the phenomenon whereby light is emitted at 380 nm during their transition to ground state, the maximum luminescence intensity was measured with a luminometer. The inhibition rate against active oxygen production was calculated according to the following equation. […]

Row | SMILES | Inhibition rate of osteoclasia with respect to control group (adjuvant arthritis) | Inhibition rate of edema with respect to control group (adjuvant arthritis; left paw, 16th day) | Inhibition rate of edema with respect to control group (adjuvant arthritis; left paw, 21st day) | Inhibition rate of edema with respect to control group (adjuvant arthritis; right paw, 16th day) | Inhibition rate of edema with respect to control group (adjuvant arthritis; right paw, 21st day) | Inhibition rate (resorption pit formation) with respect to control (osteoclasts; 10 μM) | Inhibition rate (resorption pit formation) with respect to control (osteoclasts; 100 μM) | Inhibition rate of edema with respect to control group (adjuvant arthritis; left paw, 17th day) | Inhibition rate of edema with respect to control group (adjuvant arthritis; right paw, 17th day) | inhibition at 100 µM [1] | proteoglycan count in cell layer relative to count at initial addition of inorganic sulfuric acid (Rabbit cartilage cells; not stimulated 0.45, IL-1-stimulated control 0.11) | proteoglycan count in supernatant relative to count at initial addition of inorganic sulfuric acid (Rabbit cartilage cells; not stimulated 0.63, IL-1-stimulated control 1.06) | Active oxygen production inhibition rate (neutrophils)
1 | O=P(O)(O)C(Sc1ccc2cc(O)ccc2c1)P(=O)(O)O [Example 6, 6-Hydroxy-2-naphthylthiomethanediphosphonic Acid] | 60.3% | 85.6% | 117.3% | 31.8% | 39.9% | 30.6 ± 12.5% | 90.8 ± 1.33% | – | – | – | – | – | –
2 | COc1ccc2cc(SC(P(=O)(O)O)P(=O)(O)O)ccc2c1 [Example 4, 6-Methoxy-2-naphthylthiomethanediphosphonic Acid] | 55.2% | – | 93.0% | – | 33.4% | 47.7 ± 2.18% | 94.8 ± 1.04% | 80.0% | 40.8% | – | – | – | –
3 | O=P(O)(O)C(Sc1ccc2ccccc2c1)P(=O)(O)O [Example 2, 2-naphthylthiomethane Diphosphonic Acid] | 75.2% | – | 94.5% | – | 44.3% | 18.8 ± 6.23% | 92.1 ± 0.43% | 76.8% | 35.2% | 41.7% | 0.31 ± 0.011 | 0.78 ± 0.015 | 29.4 ± 6.58%
